According to US11390664B2, “Antibodies that potently neutralize hepatitis B virus and uses thereof” (priority 2015, dated 2022):

B1: HBC34-v2: HBC34 variant, W107F in the CDR3 of the VH and W107A in the CDR3 of the VL (antibody, V domains shown)
VH: ELQLVESGGGWVQPGGSQRLSCAASGRIFRSFYMSWVRQAPGKGLEWVATINQDGSEKLYVDSVKGRFTISRDNAKNSLFLQMNNLRVEDTAVYYCAAFSGNSGGMDVWGQGTTVSVSS
VL: SYELTQPPSVSVSPGQTVSIPCSGDKLGNKNVCWFQHKPGQSPVLVIYEVKYRPSGIPERFSGSNSGNTATLTISGTQAMDEAAYFCQTADSTTVVFGGGTRLTVL

Legend:
HBV (genotype D) = assay: HBV spreading in humanized uPA/SCID mice, treatment from 3 weeks post-infection; format: in vivo, uPA/SCID mice repopulated with primary human hepatocytes; settings: for cccDNA measurements versus mice sacrificed 3 weeks post HBV infection: treated from week 3 to week 9 post-infection
[1] = system: 19 different HBsAg genotype D mutants; format: binding, hepatitis B virus; settings: 5 μg/ml
HBV viral particles = assay: Western blot on HBV viral particles under reducing conditions; format: binding, hepatitis B virus
Source text: Ab4 is a comparative antibody, which is also reactive against the antigenic loop.

[2] = system: antigenic loop region of the HBsAg; format: binding, hepatitis B virus; settings: antibody at 1 μg/ml
[3] = system: HBsAg serotypes (adw, ady and ayw); assay: ELISA binding to HBsAg serotypes; design: species or system hepatitis B virus; settings: similar and low EC50 values
HBV = HBV neutralization on differentiated HepaRG cells; format: cell-based, hepatitis B virus; settings: HBC34 result at 5 and 0.5 μg/ml, antibodies tested at 5, 0.5 and 0.05 μg/ml
Description: At the end of the incubation, the cells were washed and further cultivated. Medium was changed every 3 days. Infection was detected by measuring in enzyme-linked immunosorbent assay (ELISA) the levels of hepatitis B surface antigen (HBsAg) and hepatitis B e antigen (HBeAg) secreted into the culture supernatant from day 7 to 11 post-infection and by detecting HBcAg staining in an immunofluorescence assay.

HBsAg (adw subtype) = assay: ELISA binding of HBC34 variants to HBsAg adw antigen; design: species or system hepatitis B virus; settings: Example 11, 18 variants, FIG. 21

Row | Molecule | cccDNA measurements versus mice sacrificed 3 weeks post HBV infection (HBV (genotype D)) | number of the 19 HBsAg mutants bound [1] | reactivity in western blot (HBV viral particles) | binding to three additional peptides (SEQ ID NO 53, 54, 55) [2] | binding to three HBsAg serotypes (adw, ady and ayw) [3] | decrease of levels of circulating HBsAg (HBV (genotype D); baseline to week 6 of treatment (week 9 post-infection)) [log] | neutralization of HBV infection (HBV) | effect of mutation(s) on binding to HBsAg compared with parental HBC34 (HBsAg (adw subtype))
1 | C=C1[C@H](CO)[C@@H](O)C[C@@H]1n1cnc2c(=O)[nH]c(N)nc21 [entecavir, reference compound] | did not differ significantly |  |  |  |  |  |  | 
2 | HBC34: IgG1-type fully human monoclonal antibody against HBsAg antigenic loop; VH SEQ ID NO: 41, VL SEQ ID NO: 42 | did not differ significantly | 18 | does not react at all | recognized with a lower signal | binds with high affinity | > 1 | neutralized completely | 
3 | B1 |  |  |  |  |  |  |  | completely abolished
